This is an account of results in patent US10953099B2, “Compositions comprising a metal source, dithiocarbamate and cyclodextrin” (priority 2016, dated 2021).

For experiment [1], the system named is Jurkat human T-cell leukemia cells. Put plainly: Cell-titer-blue viability, Jurkat. Format: cell-based. The note with it: for selectivity for Jurkat IC50 Raji/IC50 Jurkat (Factor of Selectivity for T-cell Leukemia): IC50 on Raji cells/IC50 on Jurkat cells; for IC50: in presence of sulfobutyl ether-β-cyclodextrin, 72 h. Here is the method: (§1) The anti-tumoral efficacy of a panel of 7 different Au complexes, ATM/Disulfiram, the standard therapeutic Cisplatin and well known antitumoral CuDTC (see Table 2) was tested on Jurkat human T-cell leukemia and Raji human B-cell lymphoma cells. […] 24 h later, test compound were added in the presence of sulfobutyl ether-β-cyclodextrin (30 fold disulfiram concentration) in various dilutions (100-0.01 μM). All concentrations were applied in triplicate. […] The “Factor of Selectivity for T-cell Leukemia” was calculated by division of IC50 on Raji cells/IC50 on Jurkat cells.

The test system of experiment [2] is Raji human B-cell lymphoma cells. The experiment can be described thus: Cell-titer-blue viability, Raji. The format is cell-based. The note with it: in presence of sulfobutyl ether-β-cyclodextrin, 72 h. The method, then: as §1
The test system of another experiment is H209 SCLC cells. Put plainly: H209 SCLC tumor relapse model in mice. Format: in vivo, nu/nu mice. The note with it: after 6 weeks DKFZ-00608 15 mg/kg daily in 60 mM sulfobutyl ether beta-cyclodextrin. Here is the method: The inventors wanted to compare the efficacy of DKFZ-00608 on human SCLC tumors with standard therapy in vivo. […] Followed by DKFZ-00608 in 60 mM sulfobutyl ether beta-cyclodextrin (15 mg/kg daily) for 6 weeks • DKFZ-00608 in 60 mM sulfobutyl ether beta-cyclodextrin (15 mg/kg daily) for 6 weeks. Tumor sizes were determined 2× per week for the first 9 weeks, thereafter, once per week.

On to `N.N.[Cl][Pt][Cl]` [Cisplatin], for which, in experiment [1], the “selectivity for Jurkat IC50 Raji/IC50 Jurkat (Factor of Selectivity for T-cell Leukemia)” value was determined as 4.45. The IC50 was 610 nM in experiment [1] and 2720 nM in experiment [2].

For the compound `CCN(CC)C(=S)[S-].CCN(CC)C(=S)[S-].[Cu+2]` [CuDTC], in experiment [1], the “selectivity for Jurkat IC50 Raji/IC50 Jurkat (Factor of Selectivity for T-cell Leukemia)” value is listed as 2.62 and the IC50 came to 10 nM. In addition, in experiment [2], the IC50 was determined as 20 nM.

Regarding `CCN(CC)/C1=[SH]/[Au][S]/C(N(CC)CC)=[SH]\[Au][S]1` [DKFZ-00608], the “animals with no palpable tumors” value in the experiment with H209 SCLC cells was 6 out of 10.

What is called IC50 is the concentration at which inhibition is half-maximal.
